From patent US10561703B2, “Method of modulating sex hormone levels using a sex hormone secretion modulator” (GEMVAX & KAEL CO., LTD., priority 2013, dated 2020)

Test system: FSH
Assay: FSH level in blood (serum CLIA) after repeated sc PEP-1
Assay type: in vivo, SD rats
Method: PEP-1 (peptide of SEQ ID NO: 1), lyophilized white powder, obtained according to the method mentioned in example 1 was dissolved in 0.9% of saline, considering the correction factor of PEP-1 (purity: 94.13%, content: 92.36%, correction factor: 1.15). 50 mg/mL stock solution was further diluted into 20 mg/mL, 2 mg/mL, and 1 mg/mL with 0.9% saline, and stored at 4° C. for a week until the use.
The purpose of this example is to confirm the change of sexual hormones in blood from SD rats with 7 days repeated daily administration of SEQ ID NO: 1 peptide, PEP-1. This experiment followed the Ethics Regulation of Animal Test by KAMSI Inc. (Korea Animal Medical Science Institute). In addition, this experiment, Non-GLP experiment, referred to the MFDS (Ministry of Food and Drug Safety) notification; Agent 2013-40 (5th April 2013), Principles of Good Laboratory Practice (1997).
SPF Rats (Crlj:CD(SD)) were purchased from ORIENTBio Inc. (Mokdong-ri, Buk-myeon, Gapyeong-gun, Gyeonggi-do, Republic of Korea). 75 male (6.5 weeks old and 190˜210 g) and 75 female (6.5 weeks old and 160˜180 g) rats were monitored for 4 days, and 64 of male and female rats (each) were selected for the experiment. Raising condition is as follows; 23±3° C. of temperature, […] of relative humidity, 10˜20 times/hr of number of air changes, 12 hours (8 a.m.˜8 p.m.) of lighting with 150˜300 Lux of intensity.
64 male and female […] (mentioned above) were divided into 8 groups. Administration regimen, for example, drugs, routes, dosages, and volumes were as follows:
The detailed administration regimen is as follows; once a day, twice a day and twice a week in each experimental group. Injection initiated at 10 a.m. every day, and each rat was injected at one minute intervals. Rats in Group 9, 10, 13 and 14 were injected twice a week. Administration of high dose test agent preceded that of low dose. The volume of injection was calculated using recently measured weight of rats, and it was 5 mL/kg. Subcutaneous injection was performed as follows; assistant tilted the back of rat upward, and experimenter sterilized the back of rat with 70% alcohol, followed by subcutaneous injection of test agent with 26 G syringe.
1.4 mL of blood sample (0.7 mL of serum) was collected after measurement of weight (Day 0). Next day (1 Day), 1.4 mL of blood sample (0.7 mL of serum) was collected twice after injection of test agent (4 hrs and 8 hrs after administration of test agent). For next 6 days (Day 2˜Day 7), 1.4 mL of blood was extracted once everyday (4 hours after injection of test agent). Dose and volume of test agent of each group followed the Table 3, and injection time zone was same every day. Blood was extracted from the jugular vein, and left at room temperature for 30 minutes. Serum was separated using centrifugation (10,000 rpm for 5 minutes), and stored at −70±5° C. in Deep freezer until the use. Blood extraction from each subject was done in the same time zone every day.
A CLIA (Chemi-Luminescence Immune Assay) Kit was used to analyze Testosterone, Estradiol E2, FSH (Follicle stimulating hormone), and LH (Luteinizing hormone). Analysis was completed within 48 hrs after blood extraction (Laboratory Medicine Department, Chung-Ang University Hospital), and detailed method is as follows; One-way ANOVA was used to verify the comparison between the vehicle and PEP-1, and between different doses of PEP-1. For further analysis, Duncan test was used as parametric test and Dunnett's test as non-parametric test. p<0.05 represents the statistical significance, and all statistical analysis was carried out with SPSS 10.1.
FSH was analyzed using the samples prepared from example 2. 100 μL of serum was used for analysis. Fundamentals of analysis is Two-site sandwich immunoassay based on direct chemi-luminescent. As mentioned in example 2, CLIA (Chemi-luminescence immune assay) Kit was used, following the manufacture's protocol.

EARPALLTSRLRFIPK (listed as Homo sapiens) [PEP-1, hormone secretion modulator / GnRH analog]
FSH level in blood (G11 Male 100 mg/kg sc 1/day x7, 4 days): 0.23 mIU/mL | FSH level in blood (G11 Male 100 mg/kg sc 1/day x7, 5 days): 0.21 mIU/mL | FSH level in blood (G11 Male 100 mg/kg sc 1/day x7, 6 days): 0.12 mIU/mL | FSH level in blood (G11 Male 100 mg/kg sc 1/day x7, 7 days): 0.15 mIU/mL | FSH level in blood (G11 Male 100 mg/kg sc 1/day x7, pre): 0.17 mIU/mL | FSH level in blood (G12 Female 100 mg/kg sc 1/day x7, 4 hr): 0.23 mIU/mL | FSH level in blood (G12 Female 100 mg/kg sc 1/day x7, 8 hr): 0.25 mIU/mL | FSH level in blood (G12 Female 100 mg/kg sc 1/day x7, 2 days): 0.28 mIU/mL | FSH level in blood (G12 Female 100 mg/kg sc 1/day x7, 3 days): 0.19 mIU/mL | FSH level in blood (G12 Female 100 mg/kg sc 1/day x7, 4 days): 0.15 mIU/mL | FSH level in blood (G12 Female 100 mg/kg sc 1/day x7, 5 days): 0.21 mIU/mL | FSH level in blood (G12 Female 100 mg/kg sc 1/day x7, 6 days): 0.1 mIU/mL | FSH level in blood (G12 Female 100 mg/kg sc 1/day x7, 7 days): 0.12 mIU/mL | FSH level in blood (G12 Female 100 mg/kg sc 1/day x7, pre): 0.21 mIU/mL | FSH level in blood (G13 Male 100 mg/kg sc 2/week x2 (days 1,7), 4 hr): 0.21 mIU/mL | FSH level in blood (G13 Male 100 mg/kg sc 2/week x2 (days 1,7), 8 hr): 0.23 mIU/mL | FSH level in blood (G13 Male 100 mg/kg sc 2/week x2 (days 1,7), 2 days): 0.24 mIU/mL | FSH level in blood (G13 Male 100 mg/kg sc 2/week x2 (days 1,7), 3 days): 0.19 mIU/mL | FSH level in blood (G13 Male 100 mg/kg sc 2/week x2 (days 1,7), 4 days): 0.26 mIU/mL | FSH level in blood (G13 Male 100 mg/kg sc 2/week x2 (days 1,7), 5 days): 0.37 mIU/mL | FSH level in blood (G13 Male 100 mg/kg sc 2/week x2 (days 1,7), 6 days): 0.19 mIU/mL | FSH level in blood (G13 Male 100 mg/kg sc 2/week x2 (days 1,7), 7 days): 0.14 mIU/mL | FSH level in blood (G13 Male 100 mg/kg sc 2/week x2 (days 1,7), pre): 0.38 mIU/mL | FSH level in blood (G14 Female 100 mg/kg sc 2/week x2 (days 1,7), 4 hr): 0.48 mIU/mL | FSH level in blood (G14 Female 100 mg/kg sc 2/week x2 (days 1,7), 8 hr): 0.4 mIU/mL | FSH level in blood (G14 Female 100 mg/kg sc 2/week x2 (days 1,7), 2 days): 0.23 mIU/mL | FSH level in blood (G14 Female 100 mg/kg sc 2/week x2 (days 1,7), 3 days): 0.17 mIU/mL | FSH level in blood (G14 Female 100 mg/kg sc 2/week x2 (days 1,7), 4 days): 0.14 mIU/mL | FSH level in blood (G14 Female 100 mg/kg sc 2/week x2 (days 1,7), 5 days): 0.24 mIU/mL | FSH level in blood (G14 Female 100 mg/kg sc 2/week x2 (days 1,7), 6 days): 0.17 mIU/mL | FSH level in blood (G14 Female 100 mg/kg sc 2/week x2 (days 1,7), 7 days): 0.22 mIU/mL | FSH level in blood (G14 Female 100 mg/kg sc 2/week x2 (days 1,7), pre): 0.17 mIU/mL | FSH level in blood (G15 Male 250 mg/kg sc 1/day x7, 4 hr): 0.26 mIU/mL | FSH level in blood (G15 Male 250 mg/kg sc 1/day x7, 8 hr): 0.35 mIU/mL | FSH level in blood (G15 Male 250 mg/kg sc 1/day x7, 2 days): 0.44 mIU/mL | FSH level in blood (G15 Male 250 mg/kg sc 1/day x7, 3 days): 0.12 mIU/mL | FSH level in blood (G15 Male 250 mg/kg sc 1/day x7, 4 days): 0.23 mIU/mL | FSH level in blood (G15 Male 250 mg/kg sc 1/day x7, 5 days): 0.25 mIU/mL | FSH level in blood (G15 Male 250 mg/kg sc 1/day x7, 6 days): 0.1 mIU/mL | FSH level in blood (G15 Male 250 mg/kg sc 1/day x7, 7 days): 0.12 mIU/mL | FSH level in blood (G15 Male 250 mg/kg sc 1/day x7, pre): 0.38 mIU/mL | FSH level in blood (G16 Female 250 mg/kg sc 1/day x7, 4 hr): 0.27 mIU/mL | FSH level in blood (G16 Female 250 mg/kg sc 1/day x7, 8 hr): 0.3 mIU/mL | FSH level in blood (G16 Female 250 mg/kg sc 1/day x7, 2 days): 0.34 mIU/mL | FSH level in blood (G16 Female 250 mg/kg sc 1/day x7, 3 days): 0.20 mIU/mL | FSH level in blood (G16 Female 250 mg/kg sc 1/day x7, 4 days): 0.12 mIU/mL | FSH level in blood (G16 Female 250 mg/kg sc 1/day x7, 5 days): 0.19 mIU/mL | FSH level in blood (G16 Female 250 mg/kg sc 1/day x7, 6 days): 0.18 mIU/mL | FSH level in blood (G16 Female 250 mg/kg sc 1/day x7, 7 days): 0.08 mIU/mL | FSH level in blood (G16 Female 250 mg/kg sc 1/day x7, pre): 0.19 mIU/mL | Change in FSH level compared to baseline (male and female, Day 1, 4 hr and 8 hr post injection, in particular high doses (G11 to G16)): slight increase
